Data reported in ChEMBL document CHEMBL4257559, “Protective effects of astragaloside IV against hypoxic pulmonary hypertension” (Medchemcomm, 2018).
Activity calls are given as the source filed them. No cut-off for these calls is given here.

Tests used:
Rattus norvegicus [1] = assay: Protective effect against chronic hypoxia-induced pulmonary hypertension in ip dosed Sprague-Dawley rat assessed as decrease in serum TNF-alpha levels administered every other day at 10 mins prior to induction of hypoxia and measured after 2 weeks by ELISA; format: functional, organism-based
[2] = Cmax in chronic hypoxia-induced pulmonary hypertension model of Sprague-Dawley rat at 50 mg/kg, ip after 30 to 600 mins by HPLC analysis; format: ADME, organism-based; design: dose 50 mg/kg, route intraperitoneal; details: in vivo
Rattus norvegicus [3] = assay: (§1) Protective effect against chronic hypoxia-induced pulmonary hypertension in Sprague-Dawley rat assessed as decrease in serum angiotensin-2 levels at 50 mg/kg, ip administered every other day at 10 mins prior to induction of hypoxia and measured after 2 weeks by ELISA; format: functional, organism-based
[4] = Cmax in chronic hypoxia-induced pulmonary hypertension model of Sprague-Dawley rat at 10 mg/kg, ip after 30 to 600 mins by HPLC analysis; format: ADME, organism-based; design: dose 10 mg/kg, route intraperitoneal; details: in vivo
Rattus norvegicus [5] = assay: (§2) Protective effect against chronic hypoxia-induced pulmonary hypertension in Sprague-Dawley rat assessed as decrease in serum endothelin levels at 10 mg/kg, ip administered every other day at 10 mins prior to induction of hypoxia and measured after 2 weeks by ELISA; format: functional, organism-based
Rattus norvegicus [6] = assay: as §2, with “index of right ventricular hypertrophy by measuring ratio of right ventricular/(left ventricular + septum) weight” for “serum endothelin levels”, “weeks” for “weeks by ELISA”; format: functional, organism-based
Rattus norvegicus [7] = assay: Protective effect against chronic hypoxia-induced pulmonary hypertension in Sprague-Dawley rat assessed as decrease in serum angiotensin-2 levels at 10 mg/kg, ip administered every other day at 10 mins prior to induction of hypoxia and measured after 2 weeks by ELISA; format: functional, organism-based
Pulmonary artery [8] = assay: Protective effect against chronic hypoxia-induced pulmonary hypertension in Sprague-Dawley rat pulmonary arterial ring assessed as increase in relaxation of pulmonary artery ring at 50 uM treated after phenylephrine-induced vasoconstriction measured at 10 mins relative to control; format: functional; design: scale not given: the % may be the effect or the level left
Rattus norvegicus [9] = species: Rattus norvegicus; assay: Inhibition of hypoxia-induced proliferation of Sprague-Dawley rat PASMC at 10 uM preincubated for 10 mins followed by hypoxia induction and measured after 24 hrs by CCK8 assay; format: functional
Rattus norvegicus [10] = assay: Protective effect against chronic hypoxia-induced pulmonary hypertension in Sprague-Dawley rat assessed as decrease in serum endothelin levels at 50 mg/kg, ip administered every other day at 10 mins prior to induction of hypoxia and measured after 2 weeks by ELISA; format: functional, organism-based
Pulmonary artery [11] = assay: Protective effect against chronic hypoxia-induced pulmonary hypertension in Sprague-Dawley rat pulmonary arterial ring assessed as increase in relaxation of pulmonary artery ring at 10 uM treated after phenylephrine-induced vasoconstriction measured at 1 min; format: functional, tissue-based
Rattus norvegicus [12] = species: Rattus norvegicus; assay: Inhibition of hypoxia-induced proliferation of Sprague-Dawley rat PASMC at 50 uM preincubated for 10 mins followed by hypoxia induction and measured after 24 hrs by CCK8 assay; format: functional
Pulmonary artery [13] = assay: Protective effect against chronic hypoxia-induced pulmonary hypertension in Sprague-Dawley rat pulmonary arterial ring assessed as increase in relaxation of pulmonary artery ring at 10 uM treated after phenylephrine-induced vasoconstriction measured at 10 mins relative to control; format: functional; design: scale not given: the % may be the effect or the level left
Rattus norvegicus [14] = assay: as §1, with “index of right ventricular hypertrophy by measuring ratio of right ventricular/(left ventricular + septum) weight” for “serum angiotensin-2 levels”, “weeks” for “weeks by ELISA”; format: functional, organism-based
[15] = Tmax in chronic hypoxia-induced pulmonary hypertension model of Sprague-Dawley rat at 50 mg/kg, ip after 30 to 600 mins by HPLC analysis; format: ADME, organism-based; details: in vivo
[16] = Tmax in chronic hypoxia-induced pulmonary hypertension model of Sprague-Dawley rat at 10 mg/kg, ip after 30 to 600 mins by HPLC analysis; format: ADME, organism-based; details: in vivo
Pulmonary artery [17] = assay: Protective effect against chronic hypoxia-induced pulmonary hypertension in Sprague-Dawley rat pulmonary arterial ring assessed as increase in relaxation of pulmonary artery ring at 50 uM treated after phenylephrine-induced vasoconstriction measured at 1 min; format: functional, tissue-based
Rattus norvegicus [18] = assay: Protective effect against chronic hypoxia-induced pulmonary hypertension in Sprague-Dawley rat assessed as decrease in right ventricular pressure at 50 mg/kg, ip administered every other day at 10 mins prior to induction of hypoxia and measured after 2 weeks; format: functional, organism-based
Rattus norvegicus [19] = assay: Protective effect against chronic hypoxia-induced pulmonary hypertension in ip dosed Sprague-Dawley rat assessed as decrease in serum IL-6 levels administered every other day at 10 mins prior to induction of hypoxia and measured after 2 weeks by ELISA; format: functional, organism-based
Rattus norvegicus [20] = assay: Protective effect against chronic hypoxia-induced pulmonary hypertension in Sprague-Dawley rat assessed as decrease in mean pulmonary arterial pressure at 50 mg/kg, ip administered every other day at 10 mins prior to induction of hypoxia and measured after 2 weeks; format: functional, organism-based
Rattus norvegicus [21] = assay: Protective effect against chronic hypoxia-induced pulmonary hypertension in Sprague-Dawley rat assessed as decrease in mean pulmonary arterial pressure at 10 mg/kg, ip administered every other day at 10 mins prior to induction of hypoxia and measured after 2 weeks; format: functional, organism-based
Rattus norvegicus [22] = assay: Protective effect against chronic hypoxia-induced pulmonary hypertension in Sprague-Dawley rat assessed as decrease in right ventricular pressure at 10 mg/kg, ip administered every other day at 10 mins prior to induction of hypoxia and measured after 2 weeks; format: functional, organism-based

Compound: CC(C)(O)[C@@H]1CC[C@](C)([C@H]2[C@@H](O)C[C@@]3(C)[C@@H]4C[C@H](O[C@@H]5O[C@H](CO)[C@@H](O)[C@H](O)[C@H]5O)[C@H]5C(C)(C)[C@@H](O[C@@H]6OC[C@@H](O)[C@H](O)[C@H]6O)CC[C@@]56C[C@@]46CC[C@]23C)O1
- Activity (Rattus norvegicus [1]): Dose-dependent effect
- Cmax [2]: 25200 ng/mL
- Activity (Rattus norvegicus [3]): Active
- Cmax [4]: 7270 ng/mL
- Activity (Rattus norvegicus [5]): inactive
- Activity (Rattus norvegicus [6]): inactive
- Activity (Rattus norvegicus [7]): inactive
- Activity (Pulmonary artery [8]): 21.194%
- inhibition (Rattus norvegicus [9]): inactive
- Activity (Rattus norvegicus [10]): Active
- Activity (Pulmonary artery [11]): Active
- inhibition (Rattus norvegicus [12]): Active
- Activity (Pulmonary artery [13]): 9.42%
- Activity (Rattus norvegicus [14]): inactive
- Tmax [15]: 1 h
- Tmax [16]: 1 h
- Activity (Pulmonary artery [17]): Active
- Activity (Rattus norvegicus [18]): inactive
- Activity (Rattus norvegicus [19]): Dose-dependent effect
- Activity (Rattus norvegicus [20]): inactive
- Activity (Rattus norvegicus [21]): inactive
- Activity (Rattus norvegicus [22]): inactive
